Laboratory results published in US11859234B2, “Method of monitoring RNase L activity” (THE TRUSTEES OF PRINCETON UNIVERSITY, priority 2016, dated 2024).

Tests used:
RNase L [1] = target: T1, RNase L (Homo sapiens, UniProt Q05823); experiment: RNA sequencing of RNase L cleavage products in permeabilized T47D cells stimulated with 2-5A; assay type: cell-based; set-up: endogenous in cells; settings: 1 μM 2-5A for 3 minutes compared with 1 minute
T1 sequence (Q05823 1-741): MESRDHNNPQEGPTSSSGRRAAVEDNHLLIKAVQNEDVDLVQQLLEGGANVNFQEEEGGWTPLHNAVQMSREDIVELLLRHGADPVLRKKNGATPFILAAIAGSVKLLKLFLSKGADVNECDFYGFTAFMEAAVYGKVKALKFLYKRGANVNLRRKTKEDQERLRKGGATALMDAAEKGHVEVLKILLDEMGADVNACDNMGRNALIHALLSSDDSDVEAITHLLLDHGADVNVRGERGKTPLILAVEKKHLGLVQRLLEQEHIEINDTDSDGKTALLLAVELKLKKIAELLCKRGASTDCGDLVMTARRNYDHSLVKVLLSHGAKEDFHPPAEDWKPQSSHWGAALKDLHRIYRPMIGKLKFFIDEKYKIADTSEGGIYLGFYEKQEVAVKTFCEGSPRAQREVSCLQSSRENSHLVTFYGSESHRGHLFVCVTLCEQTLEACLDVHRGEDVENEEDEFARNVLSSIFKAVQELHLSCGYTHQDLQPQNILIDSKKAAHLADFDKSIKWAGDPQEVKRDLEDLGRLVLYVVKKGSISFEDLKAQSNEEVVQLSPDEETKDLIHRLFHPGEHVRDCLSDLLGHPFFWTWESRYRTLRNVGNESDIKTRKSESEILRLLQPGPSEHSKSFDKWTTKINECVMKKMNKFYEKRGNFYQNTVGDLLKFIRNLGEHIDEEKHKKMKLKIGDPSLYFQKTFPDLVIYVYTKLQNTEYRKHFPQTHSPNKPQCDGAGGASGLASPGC
Experimental: Initially, approximately 500 ng-1 μg miRvana purified small RNAs is ligated to the ligation adapter (5′-[…]-3′(SEQ ID NO: 1), underlined portion is RNA) using RtcB. It is contemplated that the adaptor has a 3′-desthiobiotin modification. The ligated RNAs are separated from free adapter by resolving on 10% urea PAGE by staining gel and excising all RNA larger than the free adapter. RNA is eluted from gel slices overnight at 4° C. in TE buffer pH 7.5 supplemented with 0.05% Triton X-100. Glycogen is added to RNAs and precipitated with 3 volumes of 100% ethanol and 1/10 volume 3M sodium acetate pH 5.2. The sample is then incubated on dry ice for 30 minutes. […]
Libraries are assessed on an Agilent High Sensitivity DNA chip, and equimolar amounts of libraries pooled and resolved on 6% native PAGE and visualized by gel staining. […] Libraries are now ready for sequencing on the Illumina HiSeq 2000 platform.
The RNA sequencing experiments were also carried out in HeLa cells that overexpress RNase L (RNLoe) and in T47D cells derived from human breast cancer and that have been permeablized and stimulated for 1 minute or 3 minutes with 1 μM 2-5A, which specifically activates RNase L but not other pathways. Results of the primary types of cleavage products detected, e.g., tRNA-His, tRNA-Pro, RNY1, RNY3, RNY4 and RNY5, were similar. […]

RNase L [2] = target: T1, RNase L; experiment: qPCR detection of tRNA His-GUG-36 RNase L cleavage product in poly I:C stimulated HeLa cells; assay type: cell-based; set-up: endogenous in cells; host or cells: HeLa cells; settings: total RNA, RtcB ligation, qPCR with His-GUG-36-2 primer, ΔΔCt method (FIG. 4F)
Experimental: Reaction components useful in the ligation reaction include the following: 2-500 ng purified RNA, 30 μM RtcB ligase, 1 U/μL RNase inhibitor, 10 μM ligation adapter, 100 μM GTP, 20 mM HEPES pH 7.5, 2 mM MnCl2, 110 mM NaCl, 4 mM DTT, 2.2% glycerol (carried into the reaction with RtcB and RNase inhibitor). The standard reaction volume is 10 μL with incubation for 1 hour at 37° C.
After incubation 1 μL of 33 mM EDTA is added followed by a brief room temperature incubation (usually 5-10 minutes) giving a final concentration of EDTA of 3 mM. EDTA is added to chelate Mn^2+ ions that might interfere in downstream steps as well as to stop the ligation reaction.
1 μL of EDTA quenched ligation reaction is mixed with dNTPs and 10 picomoles (pmol) of RT primer in 10 μL volume. The mixture is incubated at 65° C. for 5 minutes then placed on ice (optional). The remaining components are added for a 20 μL reverse transcription reaction: RT buffer, 0.2 U μL RNase inhibitor, Reverse transcriptase (added last), and H2O for 20 μL final volume and incubated according to the RT manufacturer's specifications. […]
For the qPCR, total purified RNA from non-stimulated and poly I:C stimulated HeLa cells was serially diluted, ligated to the adapter with RtcB, reverse transcribed, and detected by qPCR using the His-GUG-36-2 primer and qPCR reverse primer.

Substance	RNA cleavage profile of RNase L products (RNase L [1])	number of tRNA His-GUG-36-2 cleavage products compared to non-stimulated cells (RNase L [2])
2′,5′-oligoadenylate [2-5A]	enhanced induction of RNA cleavage of the same products	–
polyinosinic-polycytidylic acid [polyI:C]	–	significantly increased
